“Also recorded” adds a separate entry of the source.

Test [1] has as its system RSV-infected BALB/c mice. The experiment in a line: Alveolar fluid clearance (AFC) in RSV-infected mice at day 2 p.i. It counts as in vivo. The following applies: for effect on RSV-mediated inhibition of AFC at day 2 p.i. (in words): added to the AFC instillate. Set-up: effect of uridine in the AFC instillate on the A77-1726 effect on AFC: dose or concentration left out as unconfirmed. How it is done:
Preparation of viral inocula and infection of mice. […] J. Physiol. Lung Cell Mol. Physiol. […] Data for each experimental group was derived from a minimum of 2 independent infections.
Systemic inhibition of de novo pyrimidine and purine synthesis. Leflunomide (5-methylisoxazole-4-[4-trifluoromethyl]carboxanilide, 35 mg/kg in distilled water containing 1% methylcellulose) was administered once daily by oral gavage in a volume of 300 μl/mouse for 8 days prior to infection, then throughout the infection period. Vehicle controls were gavaged with an equivalent volume of 1% methylcellulose in distilled water.
To systemically block de novo pyrimidine synthesis, mice were gavaged once daily for 8 days with […] of the dihydro-orotate reductase (DHOR) inhibitor leflunomide ([…] suspended in 1% methylcellulose) or vehicle prior to infection, then at 0 and 24 hours p.i. AFC studies were performed at 48 hours p.i., with no additions to the AFC instillate.
AFC studies were performed on anesthetized, ventilated BALB/c mice with normal body temperature and blood gases, over a 30 minute period after intratracheal instillation of 0.3 ml of isosmolar NaCl containing 5% fatty acid-free BSA. The number of mice analyzed per group is listed in the relevant bar of each graph.

The test system of the next test is UTP/ATP content of BALF. The experiment in a line: Measurement of nucleotides (UTP/ATP content) in BALF of RSV-infected mice. The test is classed as in vivo, BALB/c mice. The following applies: d2. As for the experimental part: (§1) Preparation of viral inocula and infection of mice. Preparation of viral stocks and intranasal infection of eight to twelve week-old pathogen-free BALB/c mice of either sex with RSV strain A2 (10^6 PFU in 100 μl) were performed as described in Davis et al., “Nucleotide-mediated inhibition of alveolar fluid clearance in BALB/c mice after respiratory syncytial virus infection,” Am. J. Physiol. Lung Cell Mol. Physiol. 286:L112-L120. (2004). Data for each experimental group was derived from a minimum of 2 independent infections.
(§2) Bronchoalveolar lavage. Bronchoalveolar lavage fluid (BALF) was collected as previously described in Davis et al., (2004), using 1 ml of sterile normal saline for cytokine ELISAs, or 0.3 ml of sterile saline for nucleotide assays. Lavagates were centrifuged to remove cells and supernatants stored at −80° C.
Measurement of nucleotides in BALF. Endogenous nucleotidases in BALF were heat denatured (100° C., 3 minutes) and UTP/ATP content measured using the […] and luciferine-luciferase assays, respectively.
(§3) Systemic inhibition of de novo pyrimidine and purine synthesis. Leflunomide (5-methylisoxazole-4-[4-trifluoromethyl]carboxanilide, 35 mg/kg in distilled water containing 1% methylcellulose) was administered once daily by oral gavage in a volume of 300 μl/mouse for 8 days prior to infection, then throughout the infection period. Vehicle controls were gavaged with an equivalent volume of 1% methylcellulose in distilled water. […]

Test [2] deals with IFN-α, IL-1β, KC, TNF-α in BALF. In words: Measurement of proinflammatory cytokines in BALF (ELISA). The test is classed as in vivo, BALB/c mice. The following applies: RSV-infected mice, d2; exception IFN-α. How it is done: as §1, §2
Systemic inhibition of de novo pyrimidine and purine synthesis. Leflunomide (5-methylisoxazole-4-[4-trifluoromethyl]carboxanilide, 35 mg/kg in distilled water containing 1% methylcellulose) was administered once daily by oral gavage in a volume of 300 μl/mouse for 8 days prior to infection, then throughout the infection period. Vehicle controls were gavaged with an equivalent volume of 1% methylcellulose in distilled water. […].
Measurement of proinflammatory cytokines in BALF. Cytokine levels were determined using Quantikine M ELISA kits (R & D Systems), in accordance with manufacturer's instructions.

Test [3] is classed as in vivo. Conditions: RSV-infected mice, D1 and d2. How it is done: as §1, §3
The test system of test [4] is RSV-infected BALB/c mice. In words: Lung water content (wet:dry weight ratio) after RSV infection. It counts as in vivo. Conditions: day 2 p.i. As for the experimental part:
as §1, §3

Another test deals with RSV strain A2. In words: RSV replication in mouse lungs. The test is classed as in vivo, Respiratory syncytial virus. The following applies: RSV-infected mice, day 2 p.i.; systemic treatment. As for the experimental part:
as §1, §3

Setting [5] is: RSV-infected mice, day 2 p.i., final concentration 25 μM (Table 6).
Where [6] appears, read: RSV-infected mice, d2, inhibitor 100 μM in AFC instillate (Table 5).

Regarding `O=c1c(-c2ccc(O)cc2)coc2cc(O)cc(O)c12` [Genistein], the “AFC30BASAL (mean % basal AFC after 30 minutes ± SE)” value in the test with RSV-infected BALB/c mice [1] (setting [5]) came to 20.39 ± 0.73%. Moreover, the “effect on RSV-mediated inhibition of AFC at day 2 p.i. (in words)” value in the test on RSV-infected BALB/c mice [1] was “not recapitulated; also recorded: not replicated”.
For `O=c1ccn([C@@H]2O[C@H](CO)[C@@H](O)[C@H]2O)c(=O)[nH]1` [Uridine], the “effect of concomitant uridine on the leflunomide effect on BALF nucleotides” value in the test with UTP/ATP content of BALF was “reversed the effect of leflunomide on BALF UTP and ATP levels; also recorded: caused a significant increase in the BALF nucleotide content over that in untreated RSV-infected mice”. For the same molecule, the “effect of uridine in the AFC instillate on the A77-1726 effect on AFC” value with RSV-infected BALB/c mice [1] (RSV-infected mice, day 2 p.i.) is on record as “fully reversed; also recorded: blocked”. Further, in the test with RSV-infected BALB/c mice [1] (RSV-infected mice, day 2 p.i., leflunomide 5 mg/kg oral gavage once daily, uridine 1 mg/kg i.p. q12h), the “AFC30BASAL (mean % basal AFC after 30 minutes ± SE)” value is recorded as 22.89 ± 2.22%. For the same molecule, in the test with RSV-infected BALB/c mice [1] (RSV-infected mice, day 2 p.i., uridine i.p. throughout the leflunomide treatment period), the “effect of concomitant uridine on the leflunomide effect on AFC” value is “prevented; also recorded: reversed”. In addition, the “effect on RSV-mediated inhibition of AFC at d2 (in words)” value with RSV-infected BALB/c mice [1] (systemic treatment (leflunomide oral gavage; uridine, 6-MP i.p.)) was “no effect on AFC”. Besides, the “effect of concomitant uridine on the leflunomide effect on BALF cytokines” value in test [2] was “only partially reversed”. The “effect of concomitant uridine on the leflunomide effect on weight loss” value in test [3] is given as “did not prevent this effect”. Further, in the test with RSV-infected BALB/c mice [4], the “effect of concomitant uridine on the leflunomide effect on lung water content” value is on record as “reversed this effect; also recorded: prevented this effect”. For the same molecule, the “virus replication in lung tissue at d2” value in the test with RSV strain A2 is “no effect on virus replication; also recorded: unaffected”.
With `COc1ccc(Cl)cc1C(=O)NCCc1ccc(S(=O)(=O)NC(=O)NC2CCCCC2)cc1` [Glibenclamide], in the test with RSV-infected BALB/c mice [1] (setting [6]), the “AFC (mean % AFC ± SE)” value is 24.24 ± 4.24%. Besides, the “effect on RSV-mediated inhibition of AFC at day 2 p.i. (in words)” value in the test on RSV-infected BALB/c mice [1] was “unaffected”.
As for `CCN(CC)CCOc1ccc(C(=C(Cl)c2ccccc2)c2ccccc2)cc1` [Clomiphene], the “AFC (mean % AFC ± SE)” value in the test on RSV-infected BALB/c mice [1] (RSV-infected mice, d2, inhibitor 20 μM in AFC instillate (Table 5)) was found to be 31.05 ± 2.65 %. Besides, the “AFC30BASAL (mean % basal AFC after 30 minutes ± SE)” value in the test with RSV-infected BALB/c mice [1] (RSV-infected mice, day 2 p.i., final concentration 20 μM (Table 6)) was found to be 31.0 ± 2.67 %. For the same molecule, the “effect on RSV-mediated inhibition of AFC at day 2 p.i. (in words)” value in the test with RSV-infected BALB/c mice [1] is recorded as “blocked”.
On to `C[C@]1(C2CCCC2)Cc2cc(OCC(=O)O)c(Cl)c(Cl)c2C1=O` [R(+)-IAA 94, R(+)-[(6,7-dichloro-2-cyclopentyl-2,3-dihydro-2-methyl-1-oxo-1H-inden-5yl)-oxy] acetic acid 94], for which the “AFC (mean % AFC ± SE)” value with RSV-infected BALB/c mice [1] (setting [6]) is given as 34.25 ± 1.98 %. Besides, in the test with RSV-infected BALB/c mice [1], the “effect on RSV-mediated inhibition of AFC at day 2 p.i. (in words)” value is on record as “blocked”.
Regarding `O=C(O)c1cc([N+](=O)[O-])ccc1NCCCc1ccccc1` [NPPB, 5-nitro-2-(3-phenylpropylamino) benzoic acid], the “AFC (mean % AFC ± SE)” value in the test with RSV-infected BALB/c mice [1] (setting [6]) worked out at 32.70 ± 2.18 %. The “AFC30BASAL (mean % basal AFC after 30 minutes ± SE)” value in the test with RSV-infected BALB/c mice [1] (RSV-infected mice, day 2 p.i., final concentration 100 μM (Table 6)) amounted to 35.12 ± 1.94 %. For the same molecule, in the test on RSV-infected BALB/c mice [1], the “effect on RSV-mediated inhibition of AFC at day 2 p.i. (in words)” value is “blocked”.
On to `O=c1ccn([C@@H]2O[C@H](COP(=O)(O)OP(=O)(O)OP(=O)(O)O)[C@@H](O)[C@H]2O)c(=O)[nH]1` [UTP], for which the “effect of UTP in the AFC instillate on the VRAC inhibitor effect on AFC” value in the test on RSV-infected BALB/c mice [1] (RSV-infected mice, d2, 500 nM UTP) is “reversed”.
`COc1c(C)c2c(c(O)c1C/C=C(\C)CCC(=O)O)C(=O)OC2` [MPA, mycophenolic acid]: the “AFC30BASAL (mean % basal AFC after 30 minutes ± SE)” value in the test with RSV-infected BALB/c mice [1] (setting [5]) worked out at 26.2 ± 1.7 %. The “effect on RSV-mediated inhibition of AFC at day 2 p.i. (in words)” value is “only a minor effect” with RSV-infected BALB/c mice [1]; “not and only a small blocking effect” in the test with RSV-infected BALB/c mice [1] (listed as mycophenolic acid).

The values are drawn from US20070219224A1, “Compositions and Methods Relating to Pyrimidine Synthesis Inhibitors” (UAB RESEARCH FOUNDATION, THE, priority 2004, published 2007).
